Measured values as given in article PMC9853512 (RSC Advances, 2023).
≈ marks a conversion by molar mass, not a printed value.

Key:
Assay type in all cases: cell-based
[1] = tested on: S. aureus strain ATCC 29213; assay: MIC, two-fold microdilution assay, S. aureus; settings: Staphylococcus aureus, ATCC29213, 18 h, read-out: MIC S. Aureus ATCC 29213
[2] = tested on: E. coli strain ATCC 25922; assay: MIC, two-fold microdilution assay, E. coli; settings: Escherichia coli, ATCC25922, 18 h, read-out: MIC E. coli ATCC 25922
[3] = tested on: C. albicans strain ATCC14053; assay: MIC, two-fold microdilution assay, C. albicans; settings: Candida albicans, ATCC14053, 18 h, read-out: MIC C. Albicans ATCC14053
H. pylori strain SS1 = assay: MIC, two-fold microdilution assay, H. pylori; settings: Helicobacter pylori, SS1, 48 h, read-out: MIC H. pylori SS1

| SMILES | MIC [1] [µg/mL] | MIC [2] [µg/mL] | MIC [3] [µg/mL] | MIC (H. pylori strain SS1) [µg/mL] |
| --- | --- | --- | --- | --- |
| O=C1OCCN1N=Cc1ccc([N+](=O)[O-])o1 [FZD, 3-(5-nitrofurfurylideneamino)-2-oxazolidinone] | 3.12 (≈ 13.9 µM) | 0.391 (≈ 1.73 µM) | > 50 | < 0.0976 |
| O=C1CN(N=Cc2ccc([N+](=O)[O-])o2)C(=O)N1 [NFT, 1-(((5-nitro-2-furanyl)methylene)amino)-2,4-imidazolidinedione] | 25 (≈ 105 µM) | 12.5 (≈ 52.5 µM) | > 50 | – |
